Reference: patent US7138361B2, “Herbicidal heterocycles” (E. I. du Pont de Nemours and Company, priority 2000, dated 2006)

What was measured:
Type in all cases: in vivo
[1] = tested on: smallflower flatsedge (Cyperus difformis); assay: Test C flooded paddy test; conditions: for Flatsedge plant response rating: Flooded Paddy, scale 0 to 100, 0 no effect, 100 complete control; for Plant response rating, Flatsedge: flooded paddy test, scale 0 to 100 (0 no effect, 100 complete control)
Procedure, shortened: (§1)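 Each species was cultivated to 2 leaves in flooded paddy pots, then treated. After a greenhouse period of 12–14 days, the plants were scored visually relative to controls from 0 (no effect) to 100 (complete control).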

[2] = tested on: duck salad (Heteranthera limosa); assay: Test C flooded paddy test; conditions: for Ducksalad plant response rating: Flooded Paddy, scale 0 to 100, 0 no effect, 100 complete control; for Plant response rating, Ducksalad: flooded paddy test, scale 0 to 100 (0 no effect, 100 complete control)
Procedure, shortened: as §1

[3] = tested on: barnyardgrass (Echinochloa crus-galli); assay: Test C flooded paddy test; conditions: for Barnyardgrass plant response rating: Flooded Paddy, scale 0 to 100, 0 no effect, 100 complete control; for Plant response rating, Barnyardgrass: flooded paddy test, scale 0 to 100 (0 no effect, 100 complete control)
Procedure, shortened: as §1

[4] = tested on: rice (Oryza saliva); assay: Test C flooded paddy test; conditions: for Rice plant response rating: Flooded Paddy, scale 0 to 100, 0 no effect, 100 complete control; for Plant response rating, Rice: flooded paddy test, scale 0 to 100 (0 no effect, 100 complete control)
Procedure, shortened: as §1

[5] = tested on: morning glory (Ipomoea hederacea); assay: Test B preemergence
Procedure, shortened: (§2)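 Seeds were planted and sprayed preemergence with test chemical in a non-phytotoxic solvent mixture containing surfactant; postemergence plants (2 to 18 cm, 1- to 4-leaf stage) received the same formulation. Greenhouse hold 13 to 15 days, then visual rating versus untreated controls on a 0–100 scale (0 no effect, 100 complete control).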

[6] = tested on: Surinam grass (Brachiaria decumbens); assay: Test B preemergence
Procedure, shortened: as §2

[7] = tested on: crabgrass (Digitaria sanguinalis); assay: Test B preemergence
Procedure, shortened: as §2

[8] = tested on: lambsquarters (Chenopodium album); assay: Test B preemergence
Procedure, shortened: as §2

[9] = tested on: corn (Zea mays); assay: Test B preemergence
Procedure, shortened: as §2

[10] = tested on: cocklebur (Xanthium strumarium); assay: Test B preemergence
Procedure, shortened: as §2

[11] = tested on: giant foxtail (Setaria faberii); assay: Test B preemergence
Procedure, shortened: as §2

[12] = tested on: pigweed (Amaranthus retroflexus); assay: Test B preemergence
Procedure, shortened: as §2

[13] = tested on: velvetleaf (Abutilon theophrasti); assay: Test B preemergence
Procedure, shortened: as §2

[14] = tested on: barnyardgrass (Echinochloa crus-galli); assay: Test B preemergence
Procedure, shortened: as §2

[15] = tested on: rice (Oryza saliva); assay: Test B preemergence
Procedure, shortened: as §2

[16] = tested on: morning glory (Ipomoea hederacea); assay: Test B postemergence; conditions: 13 to 15 days
Procedure, shortened: as §2

[17] = tested on: Surinam grass (Brachiaria decumbens); assay: Test B postemergence; conditions: 13 to 15 days
Procedure, shortened: as §2

[18] = tested on: corn (Zea mays); assay: Test B postemergence; conditions: 13 to 15 days
Procedure, shortened: as §2

[19] = tested on: blackgrass (Alopecurus myosuroides); assay: Test B postemergence; conditions: 13 to 15 days
Procedure, shortened: as §2

[20] = tested on: giant foxtail (Setaria faberii); assay: Test B postemergence; conditions: 13 to 15 days
Procedure, shortened: as §2

[21] = tested on: pigweed (Amaranthus retroflexus); assay: Test B postemergence; conditions: 13 to 15 days
Procedure, shortened: as §2

[22] = tested on: velvetleaf (Abutilon theophrasti); assay: Test B postemergence; conditions: 13 to 15 days
Procedure, shortened: as §2

[23] = tested on: wheat (Triticum aestivum); assay: Test B postemergence; conditions: 13 to 15 days
Procedure, shortened: as §2

[24] = tested on: barnyardgrass (Echinochloa crus-galli); assay: Test B postemergence; conditions: 13 to 15 days
Procedure, shortened: as §2

[25] = tested on: Nightshade; assay: Test C preemergence; conditions: visual evaluation after 12 to 14 days
[26] = tested on: Sunflower; assay: Test C preemergence; conditions: scale 0 to 100, 0 no effect, 100 complete control
[27] = Preemergence, Rate 500 g/ha, scale 0 to 100, 0 no effect, 100 complete control
[28] = preemergence, Rate 125 g/ha, scale of 0 to 100 where 0 is no effect and 100 is complete control, 13 to 15 days
[29] = Rate 125 g/ha, scale 0 (no effect) to 100 (complete control)
[30] = Rate 500 g/ha, scale 0 to 100, 0 is no effect, 100 is complete control

For `CC(C)Oc1cccc(N2CCC(n3ccc(C(C)C)n3)C2=O)c1` (centres unmarked) [Compound 82], the “Flatsedge plant response rating” value ([1]; Rate 250 g/ha) was 90, the “Flatsedge plant response rating” value ([1]; Rate 500 g/ha) was 100 and the “Plant response rating, Flatsedge” value ([1]; Rate 62 g/ha) was 90. The “Plant response rating, Flatsedge” value ([1]; Rate 125 g/ha) was 90, the “Ducksalad plant response rating” value ([2]; Rate 250 g/ha) was 90 and the “Ducksalad plant response rating” value ([2]; Rate 500 g/ha) was 100. The “Plant response rating, Ducksalad” value ([2]; Rate 62 g/ha) was 20, the “Plant response rating, Ducksalad” value ([2]; Rate 125 g/ha) was 30 and the “Barnyardgrass plant response rating” value ([3]; Rate 250 g/ha) was 100. For the same molecule, the “Barnyardgrass plant response rating” value ([3]; Rate 500 g/ha) was 100, the “Plant response rating, Barnyardgrass” value ([3]; Rate 62 g/ha) was 30 and the “Plant response rating, Barnyardgrass” value ([3]; Rate 125 g/ha) was 60. The “Rice plant response rating” value ([4]; Rate 250 g/ha) was 60, the “Rice plant response rating” value ([4]; Rate 500 g/ha) was 80 and the “Plant response rating, Rice” value ([4]; Rate 62 g/ha) was 0. For the same molecule, the “Plant response rating, Rice” value ([4]; Rate 125 g/ha) was 30, the “Plant response rating, Morningglory” value [5, 27] was 0 and the “Plant response rating, Morningglory” value [5, 28] was 0. The “Plant response rating, Surinam grass” value [6, 27] was 100, the “Plant response rating, Surinam grass” value [6, 28] was 90 and the “Plant response rating, Crabgrass” value [7, 27] was 100. For the same molecule, the “Plant response rating, Crabgrass” value [7, 28] was 100, the “Plant response rating, Lambsquarters” value [8, 27] was 100 and the “Plant response rating, Lambsquarters” value [8, 28] was 100. For the same molecule, the “Plant response rating, Corn” value [9, 27] was 20, the “Plant response rating, Corn” value [9, 28] was 0 and the “Plant response rating, Cocklebur” value [10, 27] was 0. For the same molecule, the “Plant response rating, Cocklebur” value [10, 28] was 0, the “Plant response rating, Foxtail, Giant” value [11, 27] was 100 and the “Plant response rating, Foxtail, Giant” value [11, 28] was 100. For the same molecule, the “Plant response rating, Pigweed” value [12, 27] was 100, the “Plant response rating, Pigweed” value [12, 28] was 100 and the “Plant response rating, Velvetleaf” value [13, 27] was 0. For the same molecule, the “Plant response rating, Velvetleaf” value [13, 28] was 0, the “Plant response rating, Barnyardgrass” value [14, 27] was 100 and the “Plant response rating, Barnyardgrass” value [14, 28] was 100. For the same molecule, the “Plant response rating, Rice” value [15, 27] was 100, the “Plant response rating, Rice” value [15, 28] was 70 and the “Plant response rating, Morningglory” value [16, 29] was 0. The “Plant response rating, Morningglory” value [16, 30] was 10, the “Plant response rating, Surinam grass” value [17, 29] was 0 and the “Plant response rating, Surinam grass” value [17, 30] was 0. The “Plant response rating, Corn” value [18, 29] was 0, the “Plant response rating, Corn” value [18, 30] was 0 and the “Plant response rating, Blackgrass” value [19, 29] was 0. The “Plant response rating, Blackgrass” value [19, 30] was 0, the “Plant response rating, Foxtail, Giant” value [20, 29] was 0 and the “Plant response rating, Foxtail, Giant” value [20, 30] was 0. For the same molecule, the “Plant response rating, Pigweed” value [21, 29] was 0, the “Plant response rating, Pigweed” value [21, 30] was 10 and the “Plant response rating, Velvetleaf” value [22, 29] was 0. For the same molecule, the “Plant response rating, Velvetleaf” value [22, 30] was 0, the “Plant response rating, Wheat” value [23, 29] was 0 and the “Plant response rating, Wheat” value [23, 30] was 0. The “Plant response rating, Barnyardgrass” value [24, 29] was 0, the “Plant response rating, Barnyardgrass” value [24, 30] was 0 and the “Plant response rating (0 to 100), Nightshade” value ([25]; Rate 500 g/ha) was 100. For the same molecule, the “Plant response rating, Sunflower” value ([26]; Rate 250 g/ha) was 70.
In the case of `O=C1C(n2ccc(C3CCCCC3)n2)SCN1c1cccc(OC(F)(F)F)c1` (centres unmarked) [Compound 50], the “Flatsedge plant response rating” value ([1]; Rate 250 g/ha) is reported as 90, the “Flatsedge plant response rating” value ([1]; Rate 500 g/ha) is reported as 100 and the “Plant response rating, Flatsedge” value ([1]; Rate 62 g/ha) is reported as 80. For the same molecule, the “Plant response rating, Flatsedge” value ([1]; Rate 125 g/ha) was 90, the “Ducksalad plant response rating” value ([2]; Rate 250 g/ha) was 80 and the “Ducksalad plant response rating” value ([2]; Rate 500 g/ha) was 90. For the same molecule, the “Plant response rating, Ducksalad” value ([2]; Rate 62 g/ha) was 0, the “Plant response rating, Ducksalad” value ([2]; Rate 125 g/ha) was 70 and the “Barnyardgrass plant response rating” value ([3]; Rate 250 g/ha) was 70. For the same molecule, the “Barnyardgrass plant response rating” value ([3]; Rate 500 g/ha) was 80, the “Plant response rating, Barnyardgrass” value ([3]; Rate 62 g/ha) was 0 and the “Plant response rating, Barnyardgrass” value ([3]; Rate 125 g/ha) was 40. The “Rice plant response rating” value ([4]; Rate 250 g/ha) was 0, the “Rice plant response rating” value ([4]; Rate 500 g/ha) was 50 and the “Plant response rating, Rice” value ([4]; Rate 62 g/ha) was 0. The “Plant response rating, Rice” value ([4]; Rate 125 g/ha) was 0, the “Plant response rating, Morningglory” value [5, 27] was 0 and the “Plant response rating, Morningglory” value [5, 28] was 0. The “Plant response rating, Surinam grass” value [6, 27] was 30, the “Plant response rating, Surinam grass” value [6, 28] was 0 and the “Plant response rating, Crabgrass” value [7, 27] was 100. The “Plant response rating, Crabgrass” value [7, 28] was 100, the “Plant response rating, Lambsquarters” value [8, 27] was 90 and the “Plant response rating, Lambsquarters” value [8, 28] was 0. The “Plant response rating, Corn” value [9, 27] was 0, the “Plant response rating, Corn” value [9, 28] was 0 and the “Plant response rating, Cocklebur” value [10, 27] was 0. For the same molecule, the “Plant response rating, Cocklebur” value [10, 28] was 0, the “Plant response rating, Foxtail, Giant” value [11, 27] was 100 and the “Plant response rating, Foxtail, Giant” value [11, 28] was 20. The “Plant response rating, Pigweed” value [12, 27] was 0, the “Plant response rating, Pigweed” value [12, 28] was 0 and the “Plant response rating, Velvetleaf” value [13, 27] was 100. For the same molecule, the “Plant response rating, Velvetleaf” value [13, 28] was 100, the “Plant response rating, Barnyardgrass” value [14, 27] was 90 and the “Plant response rating, Barnyardgrass” value [14, 28] was 0. The “Plant response rating, Rice” value [15, 27] was 0, the “Plant response rating, Rice” value [15, 28] was 0 and the “Plant response rating, Morningglory” value [16, 29] was 0. The “Plant response rating, Morningglory” value [16, 30] was 0, the “Plant response rating, Surinam grass” value [17, 29] was 0 and the “Plant response rating, Surinam grass” value [17, 30] was 0. The “Plant response rating, Corn” value [18, 29] was 0, the “Plant response rating, Corn” value [18, 30] was 0 and the “Plant response rating, Blackgrass” value [19, 29] was 0. The “Plant response rating, Blackgrass” value [19, 30] was 0, the “Plant response rating, Foxtail, Giant” value [20, 29] was 0 and the “Plant response rating, Foxtail, Giant” value [20, 30] was 50. The “Plant response rating, Pigweed” value [21, 29] was 0, the “Plant response rating, Pigweed” value [21, 30] was 0 and the “Plant response rating, Velvetleaf” value [22, 29] was 0. For the same molecule, the “Plant response rating, Velvetleaf” value [22, 30] was 0, the “Plant response rating, Wheat” value [23, 29] was 0 and the “Plant response rating, Wheat” value [23, 30] was 0. The “Plant response rating, Barnyardgrass” value [24, 29] was 0, the “Plant response rating, Barnyardgrass” value [24, 30] was 90 and the “Plant response rating (0 to 100), Nightshade” value ([25]; Rate 250 g/ha) was 0. For the same molecule, the “Plant response rating, Sunflower” value ([26]; Rate 125 g/ha) was 30.
